According to patent publication US7696201B2, “Modulators of muscarinic receptors” (Vertex Pharmaceuticals Incorporated, priority 2006, dated 2010):

Legend:
Assay type in all cases: cell-based
M2 muscarinic receptor = target: T1, M2 muscarinic receptor (Homo sapiens, UniProt P08172); experiment: Functional mobilization of intracellular calcium (FLIPR), M2-CHO cells; conditions: for Emax: 100% efficacy is the maximum response obtained with the Carbachol control; for M2 Activity: CHO cells expressing M2, calcium mobilization
T1 construct: expressed in transfected cells; host or cells: CHO (M2-CHO)
T1 sequence (P08172 1-466): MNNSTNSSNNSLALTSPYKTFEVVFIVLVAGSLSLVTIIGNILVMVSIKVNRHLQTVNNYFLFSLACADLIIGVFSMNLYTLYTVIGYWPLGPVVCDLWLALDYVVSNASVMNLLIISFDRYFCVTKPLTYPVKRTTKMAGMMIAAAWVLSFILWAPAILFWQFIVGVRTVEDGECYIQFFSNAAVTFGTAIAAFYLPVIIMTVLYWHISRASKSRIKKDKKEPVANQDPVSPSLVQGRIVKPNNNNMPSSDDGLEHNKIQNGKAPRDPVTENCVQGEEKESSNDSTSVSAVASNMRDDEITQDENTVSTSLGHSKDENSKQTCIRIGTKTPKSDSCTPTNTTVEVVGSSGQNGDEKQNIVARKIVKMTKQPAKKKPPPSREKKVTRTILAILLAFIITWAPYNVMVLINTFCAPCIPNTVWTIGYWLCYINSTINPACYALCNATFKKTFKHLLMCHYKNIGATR
Protocol: (§1) Functional Mobilization of Intracellular Calcium to Determine Muscarinic Receptor Activity:
(§2) CHO cells expressing muscarinic receptors (M1 to M5) are grown as monolayers in tissue culture flasks at 37° C. in a humidified atmosphere containing 5% CO2 and passaged every 3-5 days. The growth media is Dulbecco's modified eagles medium (DMEM, Gibco Cat# 12430-054), containing 25 mM Hepes and supplemented with Fetal Bovine Serum (Hyclone, cat# SH30071.03), 0.1 mM of MEM non-essential amino acids (GIBCO, Cat# 11140-050), 1 mM MEM Sodium Pyruvate (GIBCO Cat# 11360-070) and 100 units/ml of Penicillin G and 100 μg/ml of Streptomycin (GIBCO Cat# 15140-122). The recombinant muscarinic receptor cell lines are grown under antibiotic pressure with media containing 25 μg/ml zeocin and 500 μg/ml G418 (M1-CHO), 4 μg/ml puromycin, 50 μg/ml zeocin and 2.5 μg/ml blasticidin (M2 and M4-CHO) or 50 μg/ml zeocin and 4 μg/ml puromycin (M3 and M5-CHO).
(§3) Cells are harvested at 80-90% confluence using Versene (GIBCO Cat# 15040-066), collected by centrifugation and seeded 18-24 hours prior to running the calcium assay at a density of 5,000-10,000 cells/well in […], clear-bottomed 384-well plates (BD Biocoat, poly-D-lysine, Cat#356663). The day of the experiment, the cells are washed with a plate washer (Bioteck Instruments, ELX 405) using Bath 1 buffer (140-mM NaCl, 4.5-mM KCl, 2-mM CaCl2, 1-mM MgCl2, 10-mM Hepes-Na, 10-mM Glucose, pH 7.4, with NaOH) containing 1 mM Probenecid. Next, the calcium dye Fluo-3 (25 μl/well of Fluo-3 AM at 4 μM, Molecular Probes F-1241, in Bath 1 buffer containing 1 mM Probenecid) is added to the 25 μl of Bath 1 remaining in each well after the plate wash and the dye is loaded at 37° C. in the tissue culture incubator for 60-90 min. The fluorescent dye is removed using the plate washer with Bath 1 containing 1 mM Probenecid, leaving 25 μl/well of this solution after the wash. Alternatively, cells can be loaded with the calcium indicator from Molecular Devices (Calcium 3 Assay Reagents, Cat # R7181) adding 5 μl of a 5× solution dye in Bath 1 containing 1 mM Probenecid (10 ml per dye flask cat# R7182 to generate a solution 20×) to 20 μl of the same buffer. After loading for 60 min, the experiment can be run without having to remove the dye.
(§4) Compounds are prepared at a 2× fold concentration in a 96-well plate (round bottom, Costar Corning cat# 3656), by reconstituting the pre-spotted compounds in bath 1 containing 1 mM probenecid. The final concentration DMSO is 0.5%, and the amount of DMSO is normalized across the assay plate. To determine an agonist action of the compounds on muscarinic receptors, the reconstituted compounds are added (25 μl compound/well) to the cell assay plate (containing 25 μl/well) using the multi-channel robotic system of the FLIPR 3 Instrument (Molecular Devices, Sunnyvale, Calif.). To determine a functional inhibitory action of the compounds on muscarinic receptors, the reconstituted compounds are added (25 μl compound/well) to the assay plate and pre-incubated for 15 min prior to adding 25 μl of Carbachol at 3× the EC80 for each muscarinic subtype. Alternatively, the compounds can be co-applied simultaneously with the agonist. In both assay modes, the fluorescence is recorded for 60 sec (excitation wavelength is […] and emission wavelength 540 nm) using the FLIPR 3 instrument.
(§5) The potency, efficacy and selectivity of the muscarinic compounds were evaluated by screening the compound activity across the whole family (M1 to M5 cells). Compounds were also screened for activity on other proteins such as other GPCRs and ion channels to determine selectivity on M4 receptors.
(§6) Examples of activities and efficacies of the muscarinic compounds of formulae (I, Ia, Ib, Ic, and Id) on modulating M1 and M4 receptors are shown below in Table 3. […]

M1 muscarinic receptor = target: T2, M1 muscarinic receptor (Homo sapiens, UniProt P11229); experiment: Functional mobilization of intracellular calcium (FLIPR), M1-CHO cells; conditions: for Emax: 100% efficacy is the maximum response obtained with the Carbachol control; for M1 Activity: CHO cells expressing M1, calcium mobilization
T2 construct: expressed in transfected cells; host or cells: CHO (M1-CHO)
T2 sequence (P11229 1-460): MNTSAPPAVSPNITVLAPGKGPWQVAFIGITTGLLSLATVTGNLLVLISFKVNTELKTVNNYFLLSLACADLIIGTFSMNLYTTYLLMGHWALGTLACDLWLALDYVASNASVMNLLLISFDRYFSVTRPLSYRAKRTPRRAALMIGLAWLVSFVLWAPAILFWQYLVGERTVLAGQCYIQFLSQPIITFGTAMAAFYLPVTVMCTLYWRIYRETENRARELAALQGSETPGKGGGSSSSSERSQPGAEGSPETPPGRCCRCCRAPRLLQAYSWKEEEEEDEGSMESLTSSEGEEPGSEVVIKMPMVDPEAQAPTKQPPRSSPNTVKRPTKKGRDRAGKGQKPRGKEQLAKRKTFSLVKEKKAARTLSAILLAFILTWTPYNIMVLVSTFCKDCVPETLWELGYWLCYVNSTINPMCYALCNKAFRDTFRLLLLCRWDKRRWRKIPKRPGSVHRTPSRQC
Protocol: as §1, §2, §3, §4, §5, §6

M4 muscarinic receptor = target: T3, M4 muscarinic receptor (Homo sapiens, UniProt P08173); experiment: Functional mobilization of intracellular calcium (FLIPR), M4-CHO cells; conditions: for Emax: 100% efficacy is the maximum response obtained with the Carbachol control; for M4 Activity: CHO cells expressing M4, calcium mobilization
T3 construct: expressed in transfected cells; host or cells: CHO (M4-CHO)
T3 sequence (P08173 1-479): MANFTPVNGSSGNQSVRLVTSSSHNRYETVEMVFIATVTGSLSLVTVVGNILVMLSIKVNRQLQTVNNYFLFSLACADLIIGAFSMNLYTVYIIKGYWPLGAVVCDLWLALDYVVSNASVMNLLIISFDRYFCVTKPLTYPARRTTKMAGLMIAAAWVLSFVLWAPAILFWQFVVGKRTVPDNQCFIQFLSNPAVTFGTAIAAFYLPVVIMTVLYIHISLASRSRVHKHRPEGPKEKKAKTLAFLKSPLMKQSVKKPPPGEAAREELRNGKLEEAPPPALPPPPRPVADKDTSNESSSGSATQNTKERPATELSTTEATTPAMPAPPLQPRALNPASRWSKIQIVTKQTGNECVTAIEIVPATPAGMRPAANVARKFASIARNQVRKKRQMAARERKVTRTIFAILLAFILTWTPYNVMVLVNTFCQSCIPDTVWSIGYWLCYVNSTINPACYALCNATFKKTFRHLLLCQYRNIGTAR
Protocol: as §1, §2, §3, §4, §5, §6

M3 muscarinic receptor = target: T4, M3 muscarinic receptor (Homo sapiens, UniProt P20309); experiment: Functional mobilization of intracellular calcium (FLIPR), M3-CHO cells; conditions: for Emax: 100% efficacy is the maximum response obtained with the Carbachol control; for M3 Activity: CHO cells expressing M3, calcium mobilization
T4 construct: expressed in transfected cells; host or cells: CHO (M3-CHO)
T4 sequence (P20309 whole entry): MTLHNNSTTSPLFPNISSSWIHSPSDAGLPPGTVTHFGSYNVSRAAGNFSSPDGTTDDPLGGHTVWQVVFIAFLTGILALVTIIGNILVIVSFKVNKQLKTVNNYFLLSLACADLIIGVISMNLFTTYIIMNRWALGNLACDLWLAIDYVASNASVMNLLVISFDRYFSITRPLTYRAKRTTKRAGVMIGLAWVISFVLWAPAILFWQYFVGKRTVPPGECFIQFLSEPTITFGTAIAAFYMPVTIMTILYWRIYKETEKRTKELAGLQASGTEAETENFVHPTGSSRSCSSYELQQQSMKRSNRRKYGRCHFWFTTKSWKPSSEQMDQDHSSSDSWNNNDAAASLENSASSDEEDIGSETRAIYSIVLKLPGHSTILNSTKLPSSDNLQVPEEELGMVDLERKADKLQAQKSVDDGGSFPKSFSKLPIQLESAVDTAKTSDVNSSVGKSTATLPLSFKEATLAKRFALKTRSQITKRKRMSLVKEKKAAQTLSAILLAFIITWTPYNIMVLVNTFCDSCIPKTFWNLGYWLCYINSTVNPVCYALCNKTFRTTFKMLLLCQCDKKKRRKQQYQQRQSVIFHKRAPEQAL
Protocol: as §1, §2, §3, §4, §5, §6

`CCON=C1CCC(N2CCC3(CC2)OC(=O)Nc2ccccc23)CC1` (stereo not drawn) [Compound 3, 1′-(4-(ethoxyimino)cyclohexyl)spiro[benzo[d][1,3]oxazine-4,4′-piperidin]-2(1H)-one] was tested, and the Emax (M2 muscarinic receptor) was 25 to 100%, the “M2 Activity” value (M2 muscarinic receptor) was “+++ (activity was measured to be less than 2.0 μM)” and the Emax (M1 muscarinic receptor) was 25 to 100%. The “M1 Activity” value (M1 muscarinic receptor) was “+++ (activity was measured to be less than 2.0 μM)”, the Emax (M4 muscarinic receptor) was 25 to 100% and the “M4 Activity” value (M4 muscarinic receptor) was “+++ (activity was measured to be less than 2.0 μM)”. The Emax (M3 muscarinic receptor) was 25 to 100% and the “M3 Activity” value (M3 muscarinic receptor) was “+++ (activity was measured to be less than 2.0 μM)”.
With `CCOC(=O)N1CCC(CN2CCC3(CC2)OC(=O)Nc2ccccc23)CC1` [Compound 13, ethyl-4-((2-oxo-1,2-dihydrospiro[benzo[d][1,3]oxazine-4,4′-piperidine]-1′-yl)methyl)piperidine-1-carboxylate] the Emax (M2 muscarinic receptor) was 25 to 100%, the “M2 Activity” value (M2 muscarinic receptor) was “+++ (activity was measured to be less than 2.0 μM)” and the Emax (M1 muscarinic receptor) was 25 to 100%. For the same molecule, the “M1 Activity” value (M1 muscarinic receptor) was “+++ (activity was measured to be less than 2.0 μM)”, the Emax (M4 muscarinic receptor) was 25 to 100% and the “M4 Activity” value (M4 muscarinic receptor) was “+++ (activity was measured to be less than 2.0 μM)”. The Emax (M3 muscarinic receptor) was 25 to 100% and the “M3 Activity” value (M3 muscarinic receptor) was “+++ (activity was measured to be less than 2.0 μM)”.
For `O=C1Nc2ccccc2C2(CCN(C3CCN(c4cnccn4)CC3)CC2)O1` [Compound 74, 1′-(1-(pyrazin-2-yl)piperidin-4-yl)spiro[benzo[d][1,3]oxazine-4,4′piperidin]-2(1H)-one], the Emax (M2 muscarinic receptor) was 25 to 100%, the “M2 Activity” value (M2 muscarinic receptor) was “+++ (activity was measured to be less than 2.0 μM)” and the Emax (M1 muscarinic receptor) was greater than 100%. For the same molecule, the “M1 Activity” value (M1 muscarinic receptor) was “+++ (activity was measured to be less than 2.0 μM)”, the Emax (M4 muscarinic receptor) was 25 to 100% and the “M4 Activity” value (M4 muscarinic receptor) was “+++ (activity was measured to be less than 2.0 μM)”. The Emax (M3 muscarinic receptor) was 25 to 100% and the “M3 Activity” value (M3 muscarinic receptor) was “+ (activity was measured to be greater than 5.0 μM)”.
With `O=C1Nc2ccccc2C2(CCN(C3CCNCC3)CC2)O1` [Compound 49, 1′-(piperidin-4-yl)spiro[benzo[d][1,3]oxazine-4,4′-piperidin]-2(1H)-one] the Emax (M2 muscarinic receptor) was less than 25%, the “M2 Activity” value (M2 muscarinic receptor) was “+ (activity was measured to be greater than 5.0 μM)” and the Emax (M1 muscarinic receptor) was 25 to 100%. For the same molecule, the “M1 Activity” value (M1 muscarinic receptor) was “+ (activity was measured to be greater than 5.0 μM)”, the Emax (M4 muscarinic receptor) was less than 25% and the “M4 Activity” value (M4 muscarinic receptor) was “+ (activity was measured to be greater than 5.0 μM)”. The Emax (M3 muscarinic receptor) was less than 25% and the “M3 Activity” value (M3 muscarinic receptor) was “+ (activity was measured to be greater than 5.0 μM)”.
With `CCC(C)(C)C1CCC(N2CCC3(CC2)OC(=O)Nc2ccccc23)CC1` (stereo not drawn) [Compound 35] the Emax (M2 muscarinic receptor) was less than 25%, the “M2 Activity” value (M2 muscarinic receptor) was “+ (activity was measured to be greater than 5.0 μM)” and the Emax (M1 muscarinic receptor) was 25 to 100%. For the same molecule, the “M1 Activity” value (M1 muscarinic receptor) was “+++ (activity was measured to be less than 2.0 μM)”, the Emax (M4 muscarinic receptor) was less than 25% and the “M4 Activity” value (M4 muscarinic receptor) was “+ (activity was measured to be greater than 5.0 μM)”. The Emax (M3 muscarinic receptor) was less than 25% and the “M3 Activity” value (M3 muscarinic receptor) was “+ (activity was measured to be greater than 5.0 μM)”.
With `CCOC(=O)N1CCC(N2CCC3(CC2)OC(=O)Nc2ccccc23)CC1` [Compound 62] the Emax (M2 muscarinic receptor) was 25 to 100%, the “M2 Activity” value (M2 muscarinic receptor) was “+++ (activity was measured to be less than 2.0 μM)” and the Emax (M1 muscarinic receptor) was 25 to 100%. The “M1 Activity” value (M1 muscarinic receptor) was “+++ (activity was measured to be less than 2.0 μM)”, the Emax (M4 muscarinic receptor) was 25 to 100% and the “M4 Activity” value (M4 muscarinic receptor) was “+++ (activity was measured to be less than 2.0 μM)”. For the same molecule, the Emax (M3 muscarinic receptor) was 25 to 100% and the “M3 Activity” value (M3 muscarinic receptor) was “+++ (activity was measured to be less than 2.0 μM)”.
